System: skin microbiome
Test: Conversion of crocin to crocetin by the skin microbiome (in vitro)
Assay type: in vitro ADME
Protocol: Sampling of skin microbiome was performed on 7 volunteers with a sterile gauze impregnated with NaCl in 5 areas: forehead, cheek, nose, neck, forearm. All samples were combined to obtain a representative skin microbiota composition. The thus obtained microbiome was cultured in liquid medium (buffered HT medium) at 30° C. in the presence of crocin. Supernatants were collected regularly and analyzed by HPLC-MS to detect crocin and crocetin.

| SMILES | concentration, % of maximum concentration detected (skin microbiome culture with crocin, 42 h) [%] | concentration, % of maximum concentration detected (skin microbiome culture with crocin, 66 h) [%] | concentration, % of maximum concentration detected (skin microbiome culture with crocin, 90 h) [%] | concentration, % of maximum concentration detected (skin microbiome culture with crocin, 162 h) [%] | concentration, % of maximum concentration detected (skin microbiome culture with crocin, 186 h) [%] | concentration, % of maximum concentration detected (skin microbiome culture with crocin, 210 h) [%] | time for complete transformation to crocetin (human) [h] | concentration, % of maximum concentration detected (human, 0 h) [%] | concentration, % of maximum concentration detected (human, 18 h) [%] | concentration, % of maximum concentration detected (human, 42 h) [%] | concentration, % of maximum concentration detected (human, 66 h) [%] | concentration, % of maximum concentration detected (human, 90 h) [%] |
| --- | --- | --- | --- | --- | --- | --- | --- | --- | --- | --- | --- | --- |
| CC(/C=C/C=C(\C)C(=O)O)=C\C=C\C=C(C)\C=C\C=C(/C)C(=O)O [Crocetin] | 0.7 | 7.9 | 30.5 | 65.3 | 101.3 | 101.3 |  |  |  |  |  |  |
| CC(/C=C/C=C(\C)C(=O)O[C@@H]1O[C@H](CO[C@@H]2O[C@H](CO)[C@@H](O)[C@H](O)[C@H]2O)[C@@H](O)[C@H](O)[C@H]1O)=C\C=C\C=C(C)\C=C\C=C(/C)C(=O)O[C@@H]1O[C@H](CO[C@@H]2O[C@H](CO)[C@@H](O)[C@H](O)[C@H]2O)[C@@H](O)[C@H](O)[C@H]1O [Crocin] |  |  |  |  |  |  | ≤ 210 | 100 | 100 | 47.5 | 2.9 | 0.1 |

From patent US20230101236A1, “COSMETIC COMPOSITION” (GIVAUDAN SA, priority 2020, published 2023)
